# Test results as given in paper PMC9962600, “Structure-Function Studies of Sponge-Derived Compounds on the Cardiac CaV3.1 Channel” (International Journal of Molecular Sciences, 2023).
# Values joined by “and” are separate entries in the source; they are usually repeats but may differ in a detail not shown here. Equal values may be shown once.
# Legend:
# [1] = biological target: T1, rat CaV3.1 channel (Rattus norvegicus, UniProt O54898); assay: Two-electrode voltage clamp on Xenopus oocytes expressing CaV3.1; type: cell-based; details: for inhibition at 10 µM / Shift in the voltage dependency (activation/inactivation) of CaV3.1: 10 μM compound; for inhibition at 10 µM: 10 mM Ba2+, means ± SEM (n ≥ 3), read-out: Inhibition of CaV3.1 currents; for IC50: concentration-response 0.1-100 μM, means ± SEM; for Hill coefficient on CaV3.1: concentration-response fit; for Reversibility of effect on CaV3.1 on wash-out: wash-in and wash-out
# Description: In previous work, a library of 119 simplified analogs was synthesized with the aim of targeting KV10.1 [18, 23, 24, 25]. Due to the interesting activity of purpurealidin I (1), we decided to repurpose this existing library to investigate the structure–activity relationship with respect to the CaV3.1 channels. All compounds were first dissolved in DMSO and then diluted in a 10 mM Ba^2+ solution. Compounds were tested at a final concentration of 10 μM.
# (§1) Rat CaV3.1, human CaV3.2, rat CaV3.3, human NaV1.5, rat KV1.4, rat KV4.2, and human KV11.1 were expressed in X. laevis oocytes by linearizing the plasmids and subsequent in vitro transcription using a commercial T7 mMESSAGE mMACHINE transcription kit (Ambion, Carlsbad, CA, USA). Defolliculated Xenopus oocytes were injected with 50 nL of cRNA at a concentration of 1 ng/nL by using a microinjector (Drummond Scientific Company, Broomall, PA, USA). The oocytes were incubated in a solution containing (in mM): NaCl, 96; KCl, 2; CaCl2, 1.8; MgCl2, 2; and HEPES, 5 (pH 7.5). This solution was supplemented with 50 mg/L gentamicin sulfate and […] theophylline.
# (§2) Two-electrode voltage clamp recordings were performed at room temperature (18–22 °C) by using a GeneClamp 500 amplifier (Molecular Devices, San Jose, CA, USA) controlled by a pClamp data acquisition system (Axon Instruments, Union City, CA, USA). Whole-cell currents from oocytes were recorded 5–10 days after mRNA injection. The bath solution composition was the following (in mM): BaCl2, 10; NaOH, 90; KOH, 1; EDTA, 0.1; and HEPES, 5 (pH 7.5). Voltage and current electrodes were filled with 3 M KCl. Resistances of both electrodes were kept between 0.8 and 1.5 MΩ. The elicited CaV3.1, CaV3.2, and CaV3.3 currents were filtered at 2 kHz and sampled at 4 kHz using a four-pole low-pass Bessel filter. Leak subtraction was performed by using a -P/4 protocol. Oocytes were placed in a measuring chamber filled with 200 μL ND96. The compounds were added directly to the measuring chamber under continuous application of the described voltage protocol. The percentage channel modulation was calculated when steady-state conditions were reached.
# (§3) For the electrophysiological analysis of peptides, a number of protocols were applied from a holding potential of −90 mV. Currents for CaV3.1 and CaV3.2, which were carried by Ba^2+, were evoked by 300 ms depolarizing pulses to −25 mV or Vmax (the voltage corresponding to maximal Ba^2+ current in control conditions). Currents for CaV3.3, which were carried by Ba^2+, were evoked by 1 s depolarizing pulses to −25 mV or Vmax. The current–voltage relationships were determined by 600 ms step depolarizations between −90 and +60 mV, using 10 mV increments. The values of IPBa were normalized to the maximal Ba^2+ current amplitude and plotted as a function of voltage. To investigate the effect of the peptide toxins on the activation and steady-state inactivation, a standard 2-step protocol was used. In this protocol, 600 ms conditioning 10 mV step prepulses, ranging from −90 to +60 mV, were followed by a 400 ms test pulse to −25 mV. Data were normalized to the maximal Ba^2+ current amplitude, plotted against prepulse potential, and fitted by using the Boltzmann function: ICa/Imax = {(1 − C)/(1 + exp[(V − Vh)/k)]} + C, where Imax is the maximal IBa, Vh is the voltage corresponding to half-maximal inactivation, V is the test voltage, k is the slope factor, and C is a constant representing a non-inactivating persistent fraction (close to 0 in control). The concentration–response relationship was determined by fitting the data with the Hill equation: y = 100/{1 + [IC50/(toxin)]^h}, where y is the amplitude of the toxin-induced effect, IC50 is the toxin concentration at half-maximal efficacy, toxin is the toxin concentration, and h is the Hill coefficient.
# [2] = biological target: rat CaV3.3 (Rattus norvegicus, UniProt Q9Z0Y8); assay: Two-electrode voltage clamp on Xenopus oocytes expressing CaV3.3; type: cell-based; details: for Shift in the voltage dependency (activation/inactivation) of CaV3.3: 10 μM compound; for Hill coefficient on CaV3.3: concentration-response fit; for IC50: concentration-response, means ± SEM; for Reversibility of effect on CaV3.3 on wash-out: wash-in and wash-out
# Description: as §1, §2, §3
# [3] = biological target: KV11.1 (hERG) (Homo sapiens, UniProt Q12809); assay: Selectivity screening, KV11.1 (hERG) in Xenopus oocytes; type: cell-based; details: human, Xenopus laevis oocytes expressing human KV11.1 (hERG), pH 7.5; 10 μM; means ± SEM (n ≥ 3); read-out: Percentage of inhibition of KV11.1
# Description: (§4) As these purpurealidin analogs represent a new class of potent CaV3.1 inhibitors, they could potentially be used as pharmacological tools to investigate the role of CaV3 channels in various disease models. Therefore, compounds 74, 76, 79, and 99 were further evaluated at a concentration of 10 μM for their selectivity against cardiac voltage-gated potassium and sodium channels. […] Nevertheless, the affinity for the KV11.1 channel is an important issue for all four compounds (Table 2).
# as §1
# (§5) The selectivity screening was conducted with the following protocols: the elicited KV1.4, KV4.2, and KV11.1 currents were filtered at 0.5 kHz and sampled at 2 kHz; NaV1.5 currents were filtered at 2 kHz and sampled at 20 kHz using a four-pole low-pass Bessel filter. Leak subtraction was performed using a -P/4 protocol. The oocytes were measured in a bath solution composition of ND96 (in mM): NaCl, 96; KCl, 2; CaCl2, 1.8; MgCl2, 2; and HEPES, 5 (pH 7.5). For the electrophysiological analysis of the compounds, a number of protocols were applied from a holding potential of −90 mV. Currents for KV1.4 and KV4.2 were evoked by 0.5 s depolarizing pulses to 0 mV, followed by 0.5 s repolarizing pulses to −50 mV. Currents for KV11.1 were evoked by 2.5 s depolarizing prepulses to +40 mV, followed by hyperpolarizing pulses to −120 mV for 2.5 s. Currents for NaV1.5 were evoked by 100 ms depolarizing pulses to 0 mV.
# [4] = biological target: human CaV3.2 (Homo sapiens, UniProt O95180); assay: Two-electrode voltage clamp on Xenopus oocytes expressing CaV3.2; type: cell-based; details: for Shift in the voltage dependency (activation/inactivation) of CaV3.2: 10 μM compound; for Hill coefficient on CaV3.2: concentration-response fit; for IC50: concentration-response, means ± SEM; for Reversibility of effect on CaV3.2 on wash-out: wash-in and wash-out
# Description: as §1, §2, §3
# [5] = biological target: T1, rat CaV3.1 channel; assay: Two-electrode voltage clamp on Xenopus oocytes expressing CaV3.1; type: cell-based
# [6] = biological target: human KV11.1 (Homo sapiens, UniProt Q12809); assay: Selectivity screening, KV11.1 (hERG) in Xenopus oocytes; type: cell-based; details: comparison of own CaV3.1 and KV11.1 data
# Description: as §4, §1, §5
# [7] = system: hERG channels; details: reference not given; cited from earlier work
# Sequence of human CaV3.2 (O95180 whole entry): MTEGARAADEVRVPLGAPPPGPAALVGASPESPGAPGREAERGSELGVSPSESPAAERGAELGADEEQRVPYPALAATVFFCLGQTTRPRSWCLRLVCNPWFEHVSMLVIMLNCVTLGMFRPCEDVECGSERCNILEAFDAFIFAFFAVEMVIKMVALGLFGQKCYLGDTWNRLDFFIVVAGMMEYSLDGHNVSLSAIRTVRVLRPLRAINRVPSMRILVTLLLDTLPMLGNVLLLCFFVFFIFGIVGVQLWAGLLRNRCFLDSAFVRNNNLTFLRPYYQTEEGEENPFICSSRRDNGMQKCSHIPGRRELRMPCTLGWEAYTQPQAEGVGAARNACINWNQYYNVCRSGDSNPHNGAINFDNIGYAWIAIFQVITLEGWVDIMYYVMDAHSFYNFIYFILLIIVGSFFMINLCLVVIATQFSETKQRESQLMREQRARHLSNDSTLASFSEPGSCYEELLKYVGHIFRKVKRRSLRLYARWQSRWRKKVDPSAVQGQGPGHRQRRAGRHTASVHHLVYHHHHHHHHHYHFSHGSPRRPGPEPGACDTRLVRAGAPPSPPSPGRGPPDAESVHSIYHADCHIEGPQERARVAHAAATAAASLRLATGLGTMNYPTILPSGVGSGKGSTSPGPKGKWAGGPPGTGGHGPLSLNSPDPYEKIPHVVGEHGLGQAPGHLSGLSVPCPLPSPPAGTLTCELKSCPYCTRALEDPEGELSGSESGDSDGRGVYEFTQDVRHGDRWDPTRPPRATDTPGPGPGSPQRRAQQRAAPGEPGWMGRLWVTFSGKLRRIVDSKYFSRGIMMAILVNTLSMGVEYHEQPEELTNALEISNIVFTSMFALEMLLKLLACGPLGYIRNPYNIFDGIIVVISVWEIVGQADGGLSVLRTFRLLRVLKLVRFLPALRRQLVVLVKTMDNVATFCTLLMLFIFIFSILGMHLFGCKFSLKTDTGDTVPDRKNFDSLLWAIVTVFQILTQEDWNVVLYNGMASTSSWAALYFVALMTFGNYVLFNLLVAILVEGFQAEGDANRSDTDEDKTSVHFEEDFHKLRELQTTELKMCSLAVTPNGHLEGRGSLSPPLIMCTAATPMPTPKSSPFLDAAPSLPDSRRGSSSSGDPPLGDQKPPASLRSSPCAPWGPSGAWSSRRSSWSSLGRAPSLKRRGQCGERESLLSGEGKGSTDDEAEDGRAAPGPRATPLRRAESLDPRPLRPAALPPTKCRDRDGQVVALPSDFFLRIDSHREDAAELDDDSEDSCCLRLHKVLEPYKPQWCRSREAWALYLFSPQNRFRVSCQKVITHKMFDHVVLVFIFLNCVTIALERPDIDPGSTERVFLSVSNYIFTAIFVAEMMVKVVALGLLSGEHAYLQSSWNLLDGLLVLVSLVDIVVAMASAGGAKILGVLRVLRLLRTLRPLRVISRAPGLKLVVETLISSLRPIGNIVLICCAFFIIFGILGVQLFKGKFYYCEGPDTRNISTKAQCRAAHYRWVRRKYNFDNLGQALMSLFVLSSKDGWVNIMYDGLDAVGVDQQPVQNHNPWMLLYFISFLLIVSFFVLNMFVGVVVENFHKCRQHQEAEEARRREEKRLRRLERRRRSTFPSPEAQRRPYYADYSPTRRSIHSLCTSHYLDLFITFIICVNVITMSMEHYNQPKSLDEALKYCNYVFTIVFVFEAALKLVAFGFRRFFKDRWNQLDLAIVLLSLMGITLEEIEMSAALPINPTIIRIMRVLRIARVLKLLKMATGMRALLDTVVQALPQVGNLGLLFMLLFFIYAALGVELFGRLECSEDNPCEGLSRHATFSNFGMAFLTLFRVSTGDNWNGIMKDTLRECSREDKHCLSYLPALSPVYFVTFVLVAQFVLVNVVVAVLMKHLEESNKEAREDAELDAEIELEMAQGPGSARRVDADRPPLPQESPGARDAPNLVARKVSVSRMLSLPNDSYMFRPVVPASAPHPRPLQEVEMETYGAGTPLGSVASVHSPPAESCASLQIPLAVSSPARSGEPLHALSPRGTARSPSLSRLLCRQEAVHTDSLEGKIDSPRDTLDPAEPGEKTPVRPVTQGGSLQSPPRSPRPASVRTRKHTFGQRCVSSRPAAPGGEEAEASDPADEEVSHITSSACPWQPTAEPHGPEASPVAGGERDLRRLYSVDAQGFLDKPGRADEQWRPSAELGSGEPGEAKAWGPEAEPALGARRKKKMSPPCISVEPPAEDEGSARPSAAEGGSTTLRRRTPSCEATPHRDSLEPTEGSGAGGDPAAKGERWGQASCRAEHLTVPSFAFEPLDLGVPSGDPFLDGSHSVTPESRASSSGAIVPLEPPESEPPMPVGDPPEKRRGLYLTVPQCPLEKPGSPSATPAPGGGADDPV
# Sequence of KV11.1 (hERG) (Q12809 whole entry): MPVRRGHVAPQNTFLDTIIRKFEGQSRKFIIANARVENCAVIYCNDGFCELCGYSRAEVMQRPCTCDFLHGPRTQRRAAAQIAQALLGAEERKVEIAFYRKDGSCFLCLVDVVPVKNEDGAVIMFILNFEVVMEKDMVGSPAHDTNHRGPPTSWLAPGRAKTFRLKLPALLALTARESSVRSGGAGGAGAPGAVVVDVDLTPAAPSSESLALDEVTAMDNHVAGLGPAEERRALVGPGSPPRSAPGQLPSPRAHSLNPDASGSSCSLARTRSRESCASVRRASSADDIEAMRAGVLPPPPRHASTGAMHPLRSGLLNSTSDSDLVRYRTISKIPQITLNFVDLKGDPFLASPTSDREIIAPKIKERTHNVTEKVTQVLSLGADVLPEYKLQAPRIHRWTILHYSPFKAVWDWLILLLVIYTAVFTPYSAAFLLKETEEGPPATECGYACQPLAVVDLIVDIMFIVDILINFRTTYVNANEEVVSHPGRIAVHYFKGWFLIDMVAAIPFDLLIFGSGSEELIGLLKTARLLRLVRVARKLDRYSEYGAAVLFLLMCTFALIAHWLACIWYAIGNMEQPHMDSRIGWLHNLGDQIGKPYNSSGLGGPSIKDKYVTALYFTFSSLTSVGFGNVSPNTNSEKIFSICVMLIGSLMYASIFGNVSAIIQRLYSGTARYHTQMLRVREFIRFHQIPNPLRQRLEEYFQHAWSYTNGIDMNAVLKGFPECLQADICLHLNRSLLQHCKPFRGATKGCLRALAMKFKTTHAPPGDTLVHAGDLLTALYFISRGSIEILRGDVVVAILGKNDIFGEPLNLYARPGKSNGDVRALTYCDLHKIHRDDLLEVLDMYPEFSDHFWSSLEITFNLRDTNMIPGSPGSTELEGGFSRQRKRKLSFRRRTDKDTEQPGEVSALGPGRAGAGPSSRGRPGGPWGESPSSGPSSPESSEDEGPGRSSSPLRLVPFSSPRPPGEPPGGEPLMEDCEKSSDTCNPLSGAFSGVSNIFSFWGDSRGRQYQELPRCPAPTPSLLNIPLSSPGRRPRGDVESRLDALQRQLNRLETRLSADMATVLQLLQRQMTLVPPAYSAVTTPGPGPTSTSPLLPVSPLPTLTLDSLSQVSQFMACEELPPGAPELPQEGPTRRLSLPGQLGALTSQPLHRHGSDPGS
# Sequence of human KV11.1 (Q12809 whole entry): as above
inhibition at 10 µM [1] [%],Shift in the voltage dependency (activation/inactivation) of CaV3.3 [2],Hill coefficient on CaV3.3 [2],IC50 [2] [µM],Reversibility of effect on CaV3.3 on wash-out [2],Shift in the voltage dependency (activation/inactivation) of CaV3.1 [1],IC50 [1],Hill coefficient on CaV3.1 [1],Reversibility of effect on CaV3.1 on wash-out [1],Shift in the voltage dependency (activation/inactivation) of CaV3.2 [4],Hill coefficient on CaV3.2 [4],IC50 [4] [µM],Reversibility of effect on CaV3.2 on wash-out [4],SMILES,inhibition at 10 µM [3] [%],further results
43.4 ± 2.4,No significant shift,0.5 ± 0.1,13.9 ± 5.1,reversible,No significant shift,2.6 ± 0.6 µM,0.8 ± 0.1,reversible,No significant shift,0.8 ± 0.0,3 ± 0.2,reversible,CN(C)CCCOc1ccc(Nc2ccc(C(F)(F)F)cc2[N+](=O)[O-])cc1 [Compound 74],45.8 ± 2.9,–
43 ± 4.5,No significant shift,0.7 ± 0.1,18.2 ± 3.1,reversible,No significant shift,3.7 ± 0.6 µM,0.9 ± 0.1,reversible,No significant shift,0.8 ± 0.1,8.4 ± 3.6,reversible,CN(C)CC(O)COc1ccc(Nc2ccc(C(F)(F)F)cc2[N+](=O)[O-])cc1 (stereo not shown) [Compound 76],64.2 ± 3.2,–
90.7 ± 5.4,–,–,–,–,–,~3 µM and 4.1 µM,1.6 ± 0.1,–,–,1.4 ± 0.3,2.3 ± 0.5,–,CN(C)CC(O)COc1ccc(Oc2ccc(C(F)(F)F)cc2[N+](=O)[O-])cc1 (stereo not shown) [Compound 99],69.1 ± 1.9,"Shift in the voltage dependency (activation/inactivation) of CaV3.1 ([5]; 5 μM compound): no significant shift; inhibition at 5 µM ([5]; 5 μM compound, read-out: Inhibition of CaV3.1 currents): 57 ± 5.8%; Reversibility of effect on CaV3.1 on wash-out ([5]; 5 μM compound, wash-out with compound-free bath solution): not completely reversible; Midpoint of activation V1/2 ([5]; in the presence of 5 μM compound, control −39.9 ± 0.1 mV): −37.4 ± 0.1 mV; Inactivation curve V1/2 ([5]; in the presence of 5 μM compound, control −56.0 ± 0.1 mV): −53.0 ± 0.2 mV; Potency across CaV3.1 and hERG channels [6]: equipotent"

# Continued, molecule first:
SMILES,inhibition at 10 µM [1] [%],Shift in the voltage dependency (activation/inactivation) of CaV3.3 [2],Hill coefficient on CaV3.3 [2],IC50 [2] [µM],Reversibility of effect on CaV3.3 on wash-out [2],Shift in the voltage dependency (activation/inactivation) of CaV3.1 [1],IC50 [1],Hill coefficient on CaV3.1 [1],Reversibility of effect on CaV3.1 on wash-out [1],Shift in the voltage dependency (activation/inactivation) of CaV3.2 [4],Hill coefficient on CaV3.2 [4],IC50 [4] [µM],Reversibility of effect on CaV3.2 on wash-out [4],inhibition at 10 µM [3] [%],further results
"CNCCCOc1c(Br)cc(CCNC(=O)/C(Cc2cc(Br)c(OC)c(Br)c2)=N/O)cc1Br [Compound 1, purpurealidin I]",70.5 ± 0.6,–,–,–,–,–,–,–,–,–,–,–,–,–,–
O=C(NCc1cccnc1)C1=NOC2(C=C(Cl)C(=O)C(Cl)=C2)C1 [Compound 72],3.1 ± 1.1,–,–,–,–,–,–,–,–,–,–,–,–,–,–
CN(C)CC(O)COc1ccc(Nc2ccc(C(F)(F)F)cc2)cc1 (stereo not shown) [Compound 79],60.4 ± 5.7,No significant shift,0.7 ± 0.1,2.7 ± 0.3,reversible,No significant shift,5.9 ± 1.9 µM,0.8 ± 0.1,reversible,No significant shift,1.0 ± 0.0,7 ± 0.1,reversible,67.6 ± 3.9,–
CC(C)(C)NC(=O)CN1CCC(CNC(=O)c2cc(F)cc(Cl)c2)CC1 [Compound Z944],–,–,–,–,–,–,–,–,–,–,–,–,–,–,IC50 [7]: 7.8 µM; Potency against CaV3.1 compared to hERG channels [7]: 150 fold
